The record followed here is patent EP3087981A1, “HYGROPHORON B12 FOR USE IN THE TREATMENT OF A MYCOSIS” (Leibniz-Institut für Pflanzenbiochemie (IPB), priority 2015, dated 2016).

Each structure is given as a SMILES string. In brackets after ≈: the same amount, converted by molar mass.

The subject of this assay is Malassezia pachydermatis Isolat CBS 1879. Description: Dilution assay in 96-well microtiter plates, minimal inhibitory concentration (MHK). It is filed as cell-based. The following applies: CBS1879, RPMI 1640 Medium, 2 bis 4 Tage bei 37 °C, visual evaluation, read-out: minimale Hemmkonzentration (MHK). From the text:
Einer besonders bevorzugten Ausführungsform der Erfindung entsprechend wird Hygrophoron B^12 oder dessen Enantiomer, Epimere oder Diastereomere zur Verwendung bei der Behandlung einer Mykose eingesetzt, die durch Malassezia pachydermatis ausgelöst wird. Die Evaluierung der biologischen Eigenschaften des erfindungsgemäß verwendeten Hygrophorons B^12 ergab, dass Hygrophoron B^12 stark antimykotische Eigenschaften aufweist. Insbesondere weist Hygrophoron B^12 starke Aktivität gegen Malassezia pachydermatis auf. Figur 1 zeigt eine überraschend starke in vitro Aktivität des erfindungsgemäß verwendeten Hygrophorons B^12 gegen Malassezia pachydermatis, wobei die Aktivität mit dem Arzneistoff Terbinafin vergleichbar ist. Terbinafin ist ein synthetisches Antimykotikum und seit vielen Jahren das meist verordnete Präparat. In Figur 1 bezeichnet MHK die minimale HemmKonzentration (MHK). Sie ist die niedrigste Konzentration einer Substanz, bei der die Vermehrung von Mikroorganismen mit bloßem Auge nicht wahrgenommen werden kann. Die MHK wird mit einem sogenannten Titerverfahren bestimmt. Dabei wird die Konzentration von einem Wirkstoff (hier Terbinafin und Hygrophoron B^12) bestimmt, der das Wachstum von Malassezia pachydermatis gerade noch hemmt. Die MHK wird in Mikrogramm pro Milliliter (µg/ml) angegeben. […]

Regarding `CCCCCCCCCCCC[C@@H](O)[C@@]1(O)C(=O)C=C[C@@H]1O` [Hygrophoron B^12, (+)-cis-4,5-Dihydroxy-5-(1-hydroxytridecyl)cyclopent-2-enon], the MIC came to 0.17 µg/mL (≈ 0.544 µM).
